Seven compounds from patent US20240391965A1, “STAPLED ANTIMICROBIAL PEPTIDES (STAMPS) AND USES THEREOF” (Lytica Therapeutics, Inc., priority 2021, published 2024) can be followed below.

Data set [1] in a line: 48 hours cytotoxicity assay (CellTiter-Glo), liver toxicity. Format: cell-based, human. The conditions noted are these: 48 hours of incubation, CellTiter-Glo; read-out: Inhibitory Concentration at 50% Cytotoxicity (IC50) Human Liver Cells (HepG2). The method, boiled down:
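HepG2 cells in EMEM with 10% FBS, allowed to attach 4 h, then exposed to serially diluted StAMPs or vehicle for 48 h at 37 °C. Viability read by CellTiter-Glo luminescence.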
On the technique in general: In ATP-based viability assays light output follows the ATP content of the culture.

A short description of data set [2]: 90 minute cytotoxicity assay (LDH release), renal toxicity. The conditions noted are these: 90 minutes of incubation, LDH release; read-out: Inhibitory Concentration at 50% Cytotoxicity (IC50) Human Renal Proximal Tubule Epithelial Cells (RPTEC). The format is cell-based. The method, boiled down:
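RPTEC plated overnight, given fresh medium, then exposed to serial peptide dilutions or vehicle for 90 min at 37° C. Medium LDH measured by 10 min reagent incubation and absorbance at 490 nm.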
(Release of lactate dehydrogenase indicates damage to the cell membrane.)

In data set [3] the test system is Klebsiella pneumoniae (K. pneumoniae). Format: cell-based. As to conditions: microbroth dilution, 20-24 hours at 37° C. The method, boiled down: (§1)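 MIC by broth microdilution adapted from CLSI, in Mueller-Hinton broth or cation-adjusted MHB II, at a final inoculum of 5×10^5 CFU/ml. Overnight cultures were diluted and regrown 3-4 h before use. Serially diluted peptide was incubated 20-24 h at 37° C, and MIC was the lowest concentration showing no visible growth.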
For orientation: Broth dilution looks for growth in wells or tubes with falling amounts of substance.

Data set [4] has as its system Acinetobacter baumannii (A. baumannii). The format is cell-based. The conditions noted are these: microbroth dilution, 20-24 hours at 37° C. Put shortly: as §1
Data set [5] has as its system Staphylococcus aureus (S. aureus). The format is cell-based. The conditions noted are these: microbroth dilution, 20-24 hours at 37° C. The method, boiled down:
as §1

Data set [6] relates to Escherichia coli (E. coli). Format: cell-based. As to conditions: microbroth dilution, 20-24 hours at 37° C. The method, boiled down:
as §1

In data set [7] the test system is Pseudomonas aeruginosa (P. aeruginosa). Format: cell-based. The conditions noted are these: microbroth dilution, 20-24 hours at 37° C. Put shortly:
as §1

Values after ≈ are worked out from the molar mass of the structure shown. Starred links: 1 amine or outer side, 2 acyl side, 3 side chain; linkers in the order of their positions; H or OH if unused. Positions of bridges follow the written chain, without caps; N, C: chain ends. Residues, ends and D or L forms follow the SMILES beside them. mXylylene = c1cc(C[*:1])cc(C[*:2])c1; pXylylene = c1cc(C[*:2])ccc1C[*:1]; X1 = C(=CC[*:2])C[*:1] A value given as a limit tells only on which side of the number the result lay.

Regarding `CC[C@H](C)[C@H](NC(=O)CN)C(=O)N[C@@H](Cc1ccccc1)C(=O)N[C@@H](CO)C(=O)N[C@@H](CCCCN)C(=O)N[C@@H](CC(C)C)C(=O)N[C@@H](C)C(=O)NCC(=O)N[C@@H](CCCCN)C(=O)N[C@H]1CSCc2ccc(cc2)CSC[C@@H](C(=O)N[C@@H](CC(C)C)C(=O)N[C@H](C(=O)N[C@@H](CO)C(=O)NCC(=O)N[C@@H](CC(C)C)C(=O)N[C@@H](CCCCN)C(=O)NCC(N)=O)[C@@H](C)CC)NC(=O)[C@H](CC(N)=O)NC(=O)[C@H](CCCCN)NC(=O)[C@H]([C@@H](C)CC)NC1=O` [compound 15] (H-GIFSKLAGKCIKNCLISGLKG-NH2; linker 10-14 via pXylylene), the IC50 in data set [1] is 88 µg/mL (≈ 39.1 µM); in data set [2] it was 82 µg/mL (≈ 36.4 µM). The “Minimum Inhibitory Concentration (MIC) K. pneumoniae” value in data set [3] was 32 µg/mL. Also, the “Minimum Inhibitory Concentration (MIC) A. baumannii” value in data set [4] stood at 16 µg/mL. Further, the “Minimum Inhibitory Concentration (MIC) S. aureus” value in data set [5] was >64 µg/mL. Also, the “Minimum Inhibitory Concentration (MIC) E. coli” value in data set [6] stood at 8 µg/mL. For the same compound, the “Minimum Inhibitory Concentration (MIC) P. aeruginosa” value in data set [7] was 32 µg/mL.

In the case of `CC[C@H](C)[C@H](NC(=O)CN)C(=O)N[C@@H](Cc1ccccc1)C(=O)N[C@@H](CO)C(=O)N[C@@H](CCCCN)C(=O)N[C@@H](CC(C)C)C(=O)N[C@@H](C)C(=O)NCC(=O)N[C@@H](CCCCN)C(=O)N[C@H]1CSCC=CCSC[C@@H](C(=O)N[C@@H](CC(C)C)C(=O)N[C@H](C(=O)N[C@@H](CO)C(=O)NCC(=O)N[C@@H](CC(C)C)C(=O)N[C@@H](CCCCN)C(=O)NCC(N)=O)[C@@H](C)CC)NC(=O)[C@H](CC(N)=O)NC(=O)[C@H](CCCCN)NC(=O)[C@H]([C@@H](C)CC)NC1=O` [compound 16] (H-GIFSKLAGKCIKNCLISGLKG-NH2; linker 10-14 via X1), the IC50 in data set [1] and in data set [2] was > 200 µg/mL throughout. The “Minimum Inhibitory Concentration (MIC) K. pneumoniae” value in data set [3] was >64 µg/mL. The “Minimum Inhibitory Concentration (MIC) A. baumannii” value in data set [4] amounted to 64 µg/mL. Besides, the “Minimum Inhibitory Concentration (MIC) S. aureus” value in data set [5] was >64 µg/mL. Besides, the “Minimum Inhibitory Concentration (MIC) E. coli” value in data set [6] amounted to 32 µg/mL. In addition, in data set [7], the “Minimum Inhibitory Concentration (MIC) P. aeruginosa” value is >64 µg/mL.

On to `CC[C@H](C)[C@H](NC(=O)CN)C(=O)N[C@@H](Cc1ccccc1)C(=O)N[C@@H](CO)C(=O)N[C@@H](CCCCN)C(=O)N[C@@H](CC(C)C)C(=O)N[C@@H](C)C(=O)NCC(=O)N[C@@H](CCCCN)C(=O)N[C@@H](CCCCN)C(=O)N[C@H]1CSCc2cccc(c2)CSC[C@@H](C(=O)N[C@H](C(=O)N[C@@H](CO)C(=O)NCC(=O)N[C@@H](CC(C)C)C(=O)N[C@@H](CCCCN)C(=O)NCC(N)=O)[C@@H](C)CC)NC(=O)[C@H](CC(C)C)NC(=O)[C@H](CC(N)=O)NC(=O)[C@H](CCCCN)NC1=O` [compound 17] (H-GIFSKLAGKKCKNLCISGLKG-NH2; linker 11-15 via mXylylene), for which the IC50 in data set [1] and in data set [2] was > 200 µg/mL each time. Also, the “Minimum Inhibitory Concentration (MIC) K. pneumoniae” value in data set [3] was >64 µg/mL. In data set [4], the “Minimum Inhibitory Concentration (MIC) A. baumannii” value was >64 µg/mL. Further, in data set [5], the “Minimum Inhibitory Concentration (MIC) S. aureus” value is >64 µg/mL. Further, in data set [6], the “Minimum Inhibitory Concentration (MIC) E. coli” value came to 64 µg/mL. For the same compound, the “Minimum Inhibitory Concentration (MIC) P. aeruginosa” value in data set [7] is >64 µg/mL.

With `CC[C@H](C)[C@H](NC(=O)CN)C(=O)N[C@@H](Cc1ccccc1)C(=O)N[C@@H](CO)C(=O)N[C@@H](CCCCN)C(=O)N[C@@H](CC(C)C)C(=O)N[C@@H](C)C(=O)NCC(=O)N[C@@H](CCCCN)C(=O)N[C@@H](CCCCN)C(=O)N[C@H]1CSCc2ccc(cc2)CSC[C@@H](C(=O)N[C@H](C(=O)N[C@@H](CO)C(=O)NCC(=O)N[C@@H](CC(C)C)C(=O)N[C@@H](CCCCN)C(=O)NCC(N)=O)[C@@H](C)CC)NC(=O)[C@H](CC(C)C)NC(=O)[C@H](CC(N)=O)NC(=O)[C@H](CCCCN)NC1=O` [compound 18] (H-GIFSKLAGKKCKNLCISGLKG-NH2; linker 11-15 via pXylylene), the IC50 in data set [1] and in data set [2] was > 200 µg/mL throughout. For the same compound, the “Minimum Inhibitory Concentration (MIC) K. pneumoniae” value in data set [3] is >64 µg/mL. Also, the “Minimum Inhibitory Concentration (MIC) A. baumannii” value in data set [4] was >64 µg/mL. The “Minimum Inhibitory Concentration (MIC) S. aureus” value in data set [5] is >64 µg/mL. The “Minimum Inhibitory Concentration (MIC) E. coli” value in data set [6] was >64 µg/mL. For the same compound, the “Minimum Inhibitory Concentration (MIC) P. aeruginosa” value in data set [7] was >64 µg/mL.

For the compound `CC[C@H](C)[C@H](NC(=O)CN)C(=O)N[C@@H](Cc1ccccc1)C(=O)N[C@@H](CO)C(=O)N[C@@H](CCCCN)C(=O)N[C@@H](CC(C)C)C(=O)N[C@@H](C)C(=O)NCC(=O)N[C@@H](CCCCN)C(=O)N[C@@H](CCCCN)C(=O)N[C@H]1CSCC=CCSC[C@@H](C(=O)N[C@H](C(=O)N[C@@H](CO)C(=O)NCC(=O)N[C@@H](CC(C)C)C(=O)N[C@@H](CCCCN)C(=O)NCC(N)=O)[C@@H](C)CC)NC(=O)[C@H](CC(C)C)NC(=O)[C@H](CC(N)=O)NC(=O)[C@H](CCCCN)NC1=O` [compound 19] (H-GIFSKLAGKKCKNLCISGLKG-NH2; linker 11-15 via X1), the IC50 in data set [1] and in data set [2] was > 200 µg/mL each time. The “Minimum Inhibitory Concentration (MIC) K. pneumoniae” value in data set [3] was >64 µg/mL. Moreover, the “Minimum Inhibitory Concentration (MIC) A. baumannii” value in data set [4] is >64 µg/mL. In data set [5], the “Minimum Inhibitory Concentration (MIC) S. aureus” value was >64 µg/mL. In addition, the “Minimum Inhibitory Concentration (MIC) E. coli” value in data set [6] was >64 µg/mL. Further, the “Minimum Inhibitory Concentration (MIC) P. aeruginosa” value in data set [7] is >64 µg/mL.

Take `CC[C@H](C)[C@H](NC(=O)CN)C(=O)N[C@@H](Cc1ccccc1)C(=O)N[C@@H](CO)C(=O)N[C@@H](CCCCN)C(=O)N[C@@H](CC(C)C)C(=O)N[C@@H](C)C(=O)NCC(=O)N[C@@H](CCCCN)C(=O)N[C@@H](CCCCN)C(=O)N[C@H](C(=O)N[C@H]1CSCc2cccc(c2)CSC[C@@H](C(=O)N[C@@H](CO)C(=O)NCC(=O)N[C@@H](CC(C)C)C(=O)N[C@@H](CCCCN)C(=O)NCC(N)=O)NC(=O)[C@H](CC(C)C)NC(=O)[C@H](CC(C)C)NC(=O)[C@H](CC(N)=O)NC1=O)[C@@H](C)CC` [compound 20] (H-GIFSKLAGKKICNLLCSGLKG-NH2; linker 12-16 via mXylylene): the figures for the IC50 in data set [1] and in data set [2] were 40 µg/mL (≈ 17.8 µM) and 25 µg/mL (≈ 11.1 µM), respectively. Further, the “Minimum Inhibitory Concentration (MIC) K. pneumoniae” value in data set [3] was determined as 16 µg/mL. Also, the “Minimum Inhibitory Concentration (MIC) A. baumannii” value in data set [4] came out at 8 µg/mL. Also, in data set [5], the “Minimum Inhibitory Concentration (MIC) S. aureus” value was found to be 64 µg/mL. Besides, in data set [6], the “Minimum Inhibitory Concentration (MIC) E. coli” value is 8 µg/mL. Besides, in data set [7], the “Minimum Inhibitory Concentration (MIC) P. aeruginosa” value stood at 16 µg/mL.

For the compound `CC[C@H](C)[C@H](NC(=O)CN)C(=O)N[C@@H](Cc1ccccc1)C(=O)N[C@@H](CO)C(=O)N[C@@H](CCCCN)C(=O)N[C@@H](CC(C)C)C(=O)N[C@@H](C)C(=O)NCC(=O)N[C@@H](CCCCN)C(=O)N[C@@H](CCCCN)C(=O)N[C@H](C(=O)N[C@H]1CSCc2ccc(cc2)CSC[C@@H](C(=O)N[C@@H](CO)C(=O)NCC(=O)N[C@@H](CC(C)C)C(=O)N[C@@H](CCCCN)C(=O)NCC(N)=O)NC(=O)[C@H](CC(C)C)NC(=O)[C@H](CC(C)C)NC(=O)[C@H](CC(N)=O)NC1=O)[C@@H](C)CC` [compound 21] (H-GIFSKLAGKKICNLLCSGLKG-NH2; linker 12-16 via pXylylene), the IC50 in data set [1] was 200 µg/mL (≈ 88.8 µM); in data set [2], 96 µg/mL (≈ 42.6 µM). For the same compound, the “Minimum Inhibitory Concentration (MIC) K. pneumoniae” value in data set [3] stood at 32 µg/mL. The “Minimum Inhibitory Concentration (MIC) A. baumannii” value in data set [4] came to 16 µg/mL. In addition, the “Minimum Inhibitory Concentration (MIC) S. aureus” value in data set [5] was >64 µg/mL. Besides, the “Minimum Inhibitory Concentration (MIC) E. coli” value in data set [6] was found to be 8 µg/mL. Further, the “Minimum Inhibitory Concentration (MIC) P. aeruginosa” value in data set [7] stood at 32 µg/mL.
